Experimental data as given in publication PMC4078008, “Exploring metabolic engineering design principles for the photosynthetic production of lactic acid by Synechocystis sp. PCC6803” (Biotechnology for Biofuels, 2014).

Experiments:
[1] = biological target: T1, PK-F of E. coli (Escherichia coli, UniProt P0AD61); assay: LDH-coupled PK assay in cell-free extract with and without FBP; type: biochemical; details: activator; 3 mM FBP, 50 mM Tris-HCl pH 7.6, 5 mM MgCl2, 100 mM KCl, 0.6 mM ADP, 5 mM PEP, 30 °C
T1 construct: gene pykF; codon-optimized gene expressed in Synechocystis sp; PCC6803 (strain SYW004); cell-free extract
T1 sequence (P0AD61 whole entry): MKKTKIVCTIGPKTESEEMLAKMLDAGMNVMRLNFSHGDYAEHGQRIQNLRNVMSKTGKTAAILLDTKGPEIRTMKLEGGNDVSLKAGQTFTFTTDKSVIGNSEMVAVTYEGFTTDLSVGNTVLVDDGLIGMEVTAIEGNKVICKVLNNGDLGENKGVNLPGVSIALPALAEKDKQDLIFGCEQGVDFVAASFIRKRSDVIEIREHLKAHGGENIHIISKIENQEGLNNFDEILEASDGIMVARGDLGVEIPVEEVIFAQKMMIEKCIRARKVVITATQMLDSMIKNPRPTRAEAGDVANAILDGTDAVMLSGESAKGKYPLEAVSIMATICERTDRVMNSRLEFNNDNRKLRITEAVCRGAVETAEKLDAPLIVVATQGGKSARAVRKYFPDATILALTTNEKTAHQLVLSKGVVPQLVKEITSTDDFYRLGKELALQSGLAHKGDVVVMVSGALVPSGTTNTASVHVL

[2] = biological target: T2, L-LDH of L. lactis (LlLDH) (Lactococcus cremoris, UniProt A2RKA4); assay: NAD(P)H consumption at […] nm in cell-free extract; type: biochemical; details: 100 mM Tris-HCl pH 7.2, 2.5 mM MgCl2, 3 mM FBP, 300 uM NADH, 30 mM pyruvate, 30 °C
T2 construct: full-length, codon-optimized gene expressed in Synechocystis sp; PCC6803; cell-free extract
T2 sequence (A2RKA4 1-325): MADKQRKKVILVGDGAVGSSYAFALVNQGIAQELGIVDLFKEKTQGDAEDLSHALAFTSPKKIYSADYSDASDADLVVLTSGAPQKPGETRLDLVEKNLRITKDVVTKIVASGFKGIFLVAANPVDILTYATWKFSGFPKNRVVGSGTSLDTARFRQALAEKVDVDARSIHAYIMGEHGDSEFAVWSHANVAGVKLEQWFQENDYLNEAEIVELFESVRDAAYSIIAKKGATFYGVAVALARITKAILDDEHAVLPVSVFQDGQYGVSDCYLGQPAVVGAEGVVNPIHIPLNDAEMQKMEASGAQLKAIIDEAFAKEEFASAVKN

For `O=P(O)(O)OC[C@H]1OC(O)(COP(=O)(O)O)[C@@H](O)[C@@H]1O` (some centres unmarked) [FBP], which “relative activity with and without FBP” value [1] is on record?
Its value is “The activity assays confirmed the FBP dependency of the selected PK-F enzymes”.

How did the relative activity [2] turn out when `NC(=O)C1=CN([C@@H]2O[C@H](COP(=O)(O)OP(=O)(O)OC[C@H]3O[C@@H](n4cnc5c(N)ncnc54)[C@H](O)[C@@H]3O)[C@@H](O)[C@H]2O)C=CC1` [NADH] was run?
The relative activity was “Both show similar activity for NADH (Figure 5C) and similar expression levels”.
